Values after ≈ are worked out from the molar mass of the structure shown.
Legend:
A. baumannii = test: MIC, resazurin microtitre method; assay type: cell-based; conditions: Acinetobacter baumannii, 24 h, 35 °C, read-out: Minimal inhibitory concentration
Protocol: (§1) To ensure sterility, the extracts and DMSO underwent ultrafiltration before their use in the study. The minimum inhibitory concentration (MIC) of both aqueous and methanolic extracts was determined using a modified version of the resazurin method developed by Sarker and Nahar. A resazurin solution was prepared by dissolving 270 mg of resazurin in 40 mL of sterilized deionized water. In 96-well microtiter plates, the first row received 100 μL of samples in DMSO (1:10 v/v), while all other wells received 50 μL of Luria–Bertani broth or normal sterile solution. Serial dilutions of the extracts were performed in descending concentrations. To each well, 10 μL of the resazurin indicator solution was added. […] The plates were sealed with parafilm to prevent dehydration. A column of the plate contained the broad-spectrum antibiotic tetracycline, which was previously suspended in DMSO and served as a positive control. The negative control consisted of Luria–Bertani broth containing resazurin and bacteria without any samples. The plates were incubated at 37 °C (35 °C for A. baumannii) for 24 h. Visual observation was used to assess any color changes. If the solution changed from dark purple to pink or colorless, it was recorded as a positive result. The MIC value was determined as the lowest concentration of extracts that could prevent the color change from dark purple to pink.

P. aeruginosa = test: MIC, resazurin microtitre method; assay type: cell-based; conditions: Pseudomonas aeruginosa, 24 h, 37 °C, read-out: Minimal inhibitory concentration
Protocol: as §1

S. aureus = test: MIC, resazurin microtitre method; assay type: cell-based; conditions: Staphylococcus aureus, 24 h, read-out: Minimal inhibitory concentration
Protocol: as §1

E. coli = test: MIC, resazurin microtitre method; assay type: cell-based; conditions: Escherichia coli, 24 h, read-out: Minimal inhibitory concentration
Protocol: as §1

L. monocytogenes = test: MIC, resazurin microtitre method; assay type: cell-based; conditions: Listeria monocytogenes, 24 h, 37 °C, read-out: Minimal inhibitory concentration
Protocol: as §1

DPPH assay = conditions: 45 min, 515 nm
Protocol: The antiradical activity of the stable 1,1-diphenyl-2-picrylhydrazyl radical (DPPH) was measured using the protocol of Xiang and coworkers with slight modifications. […] To produce final concentrations ranging from 31.25 to 1000 µg/mL, aliquots of extracts were dissolved in methanol. In a straight-sided cuvette, an aliquot of methanol solution containing different concentrations of either methanolic or aqueous extracts was added to a DPPH solution (60 μM) to a final volume of 1 mL. As a control, an identical quantity of DPPH solution was applied to the cuvette, and methanol alone was used as the blank. After 45 min, the absorbance at 515 nm was measured with a Multiskan GO spectrophotometer (Thermo Fisher Scientific, Vantaa, Finland).
The standard was 6-hydroxy 2,5,7,8-tetramethylchroman-2-carboxylic acid (Trolox, Sigma-Aldrich, Milan, Italy).

Row | Compound | MIC (A. baumannii) | MIC (P. aeruginosa) | MIC (S. aureus) | MIC (E. coli) | MIC (L. monocytogenes) | DPPH (IC50) (DPPH assay)
1 | CN(C)[C@@H]1C(O)=C(C(N)=O)C(=O)[C@@]2(O)C(O)=C3C(=O)c4c(O)cccc4[C@@](C)(O)[C@H]3C[C@@H]12 [Tetracycline] | 25 ± 2 µg/mL (≈ 56.3 µM) | 28 ± 1 µg/mL (≈ 63 µM) | 28 ± 1 µg/mL (≈ 63 µM) | 25 ± 2 µg/mL (≈ 56.3 µM) | 32 ± 1 µg/mL (≈ 72 µM) | –
2 | Cc1c(C)c2c(c(C)c1O)CCC(C)(C(=O)O)O2 (stereo not drawn) [Trolox, 6-hydroxy 2,5,7,8-tetramethylchroman-2-carboxylic acid] | – | – | – | – | – | 3.65 ± 0.01 µg/mL
